In brackets after ≈: the same amount, converted by molar mass. Like-named read-outs stand apart in the source and are kept apart here.
Key:
[1] = system: S. aureus GC 2216; test: MIC, broth microdilution; details: Staphylococcus aureus, GC2216, S. aureus GC 2216
[2] = system: S. aureus GC 6466; test: MIC, broth microdilution; details: Staphylococcus aureus, GC6466, S. aureus GC 6466
[3] = system: E. coli GC 2236; test: MIC, broth microdilution; details: Escherichia coli, GC2236, E. coli GC 2236
[4] = system: S. agalactiae GC 4564; test: MIC, broth microdilution; details: Streptococcus agalactiae, GC4564, S. agalactiae GC 4564
[5] = system: E. faecalis GC 2242; test: MIC, broth microdilution; details: Enterococcus faecalis, GC2242, E. faecalis GC 2242
[6] = system: S. pyogenes GC 4563; test: MIC, broth microdilution; details: Streptococcus pyogenes, GC4563, S. pyogenes GC 4563
Method: Antimicrobial susceptibility testing. The in vitro activities of the antibiotics are determined by the broth microdilution method as recommended by the National Committee for Clinical Laboratory Standards (NCCLS) (1). Mueller-Hinton II broth (MHBII)(BBL Cockeysville, Md.) is the medium employed in the testing procedures. Microtiter plates containing serial dilutions of each antimicrobial agent are inoculated with each organism to yield the appropriate density (10^5 CFU/ml) in a 100 μl final volume. The plates are incubated for 18-22 hours at 35° C. in ambient air. […] Standard Pharmacological Test Procedures
Presented in Tables I-XIII are representative compounds of Formula I which were evaluated against a panel of 40 selected gram-positive and gram-negative bacteria strains by pre-incubation in water, mouse serum or human serum. Representative compounds were first incubated in mouse serum for an hour prior to the in vitro testing against a panel of selected gram-positive and gram-negative bacteria strains. All compounds were also pre-incubated in water for an hour prior to testing as control. Representative compounds of Formula I were incubated in human serum prior to MIC determination.

[7] = system: E. coli GC 2234; test: MIC, broth microdilution; details: Escherichia coli, GC2234, E. coli GC 2234
[8] = system: S. pneumoniae* GC 4465; test: MIC, broth microdilution; details: Streptococcus pneumoniae, S. pneumoniae* GC 4465
[9] = system: Staph.; test: Range of MIC for Staph. strains, including MRSA; details: Staphylococcus aureus, MRSA
[10] = system: E. coli GC 2235; test: MIC, broth microdilution; details: Escherichia coli, GC2235, E. coli GC 2235
[11] = system: E. coli GC 2231; test: MIC, broth microdilution; details: Escherichia coli, GC2231, E. coli GC 2231
[12] = system: E. faecium GC 4556; test: MIC, broth microdilution; details: Enterococcus faecium, GC4556, E. faecium GC 4556
[13] = system: S. aureus GC 4536; test: MIC, broth microdilution; details: Staphylococcus aureus, GC4536, S. aureus GC 4536
[14] = system: S. typhimurium GC 2172; test: MIC, broth microdilution; details: Salmonella enterica, TYPHIMURIUM, S. typhimurium GC 2172
[15] = system: E. faecalis GC 4555; test: MIC, broth microdilution; details: Enterococcus faecalis, GC4555, E. faecalis GC 4555
[16] = system: E. coli GC 2232; test: MIC, broth microdilution; details: Escherichia coli, GC2232, E. coli GC 2232
[17] = system: E. coli GC 4559; test: MIC, broth microdilution; details: Escherichia coli, GC4559, E. coli GC 4559
[18] = system: Staph. aureus Smith; test: In vivo activity (oral, iv; ED50) against Staph. aureus Smith in mice
Method: Representative examples of compounds of Formula I were tested for the oral efficacy using S. aureus Smith in mice.

[19] = system: S. pneumoniae+ GC 4465; test: MIC, broth microdilution; details: Streptococcus pneumoniae, S. pneumoniae+ GC 4465
[20] = read-out: Range of MIC, Staph (Mouse Serum)
[21] = read-out: Range of MIC, Staph (Water)
[22] = Staphylococcus aureus, in Mus musculus, po, read-out: ED50 Staph Smith SOD
[23] = iv, read-out: ED50 Staph Smith SIV

Compound | MIC ([1]; Mouse Serum pre-incubation) [µg/mL] | MIC ([1]; Water pre-incubation) [µg/mL] | MIC ([2]; Mouse Serum pre-incubation) [µg/mL] | MIC ([2]; Water pre-incubation) [µg/mL] | MIC ([3]; Mouse Serum pre-incubation) [µg/mL] | MIC ([3]; Water pre-incubation) [µg/mL] | MIC ([4]; Mouse Serum pre-incubation) [µg/mL] | MIC ([4]; Water pre-incubation) [µg/mL] | MIC ([5]; Mouse Serum pre-incubation) [µg/mL] | MIC ([5]; Water pre-incubation) [µg/mL] | MIC ([6]; Mouse Serum pre-incubation) [µg/mL] | MIC ([6]; Water pre-incubation) [µg/mL] | MIC ([7]; Mouse Serum pre-incubation) [µg/mL] | MIC ([7]; Water pre-incubation) [µg/mL] | MIC ([8]; Mouse Serum pre-incubation) [µg/mL] | MIC ([8]; Water pre-incubation) [µg/mL] | MIC [9, 20] [µg/mL] | MIC [9, 21] [µg/mL] | MIC ([10]; Mouse Serum pre-incubation) [µg/mL] | MIC ([10]; Water pre-incubation) [µg/mL] | also measured
CCCN(CC(=O)Nc1cc(N(C)C)c2c(c1O)C(=O)C1=C(O)[C@]3(O)C(=O)C(C(N)=O)=C(O)[C@@H](N(C)C)[C@@H]3C[C@@H]1C2)C(=O)OCC(C)C [Example 16, isobutyl 2-{[(5aR,6aS,7S,10aS)-9-(aminocarbonyl)-4,7-bis(dimethylamino)-1,8,10a,11-tetrahydroxy-10,12-dioxo-5,5a,6,6a,7,10,10a,12-octahydrotetracen-2-yl]amino}-2-oxoethyl(propyl)carbamate] | 2 (≈ 2.98 µM) | 4 (≈ 5.95 µM) | 4 (≈ 5.95 µM) | 8 (≈ 11.9 µM) | 64 (≈ 95.3 µM) | > 64 | 16 (≈ 23.8 µM) | 16 (≈ 23.8 µM) | 8 (≈ 11.9 µM) | 8 (≈ 11.9 µM) | 4 (≈ 5.95 µM) | 8 (≈ 11.9 µM) | > 64 | > 64 | 4 (≈ 5.95 µM) | 4 (≈ 5.95 µM) | 2 to 8 (≈ 2.98 to 11.9 µM) | 4 to 8 (≈ 5.95 to 11.9 µM) | 16 (≈ 23.8 µM) | 64 (≈ 95.3 µM) | MIC ([11]; Mouse Serum pre-incubation): > 64 µg/mL; MIC ([11]; Water pre-incubation): > 64 µg/mL; MIC ([12]; Mouse Serum pre-incubation): 4 µg/mL (≈ 5.95 µM); MIC ([12]; Water pre-incubation): 8 µg/mL (≈ 11.9 µM); MIC ([13]; Mouse Serum pre-incubation): 2 µg/mL (≈ 2.98 µM); MIC ([13]; Water pre-incubation): 4 µg/mL (≈ 5.95 µM); MIC ([14]; Mouse Serum pre-incubation): > 64 µg/mL; MIC ([14]; Water pre-incubation): > 64 µg/mL; MIC ([15]; Mouse Serum pre-incubation): 4 µg/mL (≈ 5.95 µM); MIC ([15]; Water pre-incubation): 8 µg/mL (≈ 11.9 µM); MIC ([16]; Mouse Serum pre-incubation): > 64 µg/mL; MIC ([16]; Water pre-incubation): > 64 µg/mL; MIC ([17]; Mouse Serum pre-incubation): > 64 µg/mL; MIC ([17]; Water pre-incubation): > 64 µg/mL; ED50 [18, 22]: > 32 mg/kg; ED50 [18, 23]: > 2 mg/kg; MIC ([19]; Mouse Serum pre-incubation): 8 µg/mL (≈ 11.9 µM); MIC ([19]; Water pre-incubation): 8 µg/mL (≈ 11.9 µM)
CCCN(CC(=O)Nc1cc(N(C)C)c2c(c1O)C(=O)C1=C(O)[C@]3(O)C(=O)C(C(N)=O)=C(O)[C@@H](N(C)C)[C@@H]3C[C@@H]1C2)C(=O)OCc1ccccc1 [Example 14, benzyl 2-{[(5aR,6aS,7S,10aS)-9-(aminocarbonyl)-4,7-bis(dimethylamino)-1,8,10a,11-tetrahydroxy-10,12-dioxo-5,5a,6,6a,7,10,10a,12-octahydrotetracen-2-yl]amino}-2-oxoethyl(propyl)carbamate] | 2 (≈ 2.83 µM) | 4 (≈ 5.67 µM) | 2 (≈ 2.83 µM) | 8 (≈ 11.3 µM) | > 64 | > 64 | 16 (≈ 22.7 µM) | 16 (≈ 22.7 µM) | 2 (≈ 2.83 µM) | 8 (≈ 11.3 µM) | 2 (≈ 2.83 µM) | 4 (≈ 5.67 µM) | > 64 | > 64 | 2 (≈ 2.83 µM) | 4 (≈ 5.67 µM) | 1 to 8 (≈ 1.42 to 11.3 µM) | 2 to 8 (≈ 2.83 to 11.3 µM) | 32 (≈ 45.3 µM) | 64 (≈ 90.7 µM) | MIC ([11]; Mouse Serum pre-incubation): > 64 µg/mL; MIC ([11]; Water pre-incubation): > 64 µg/mL; MIC ([12]; Mouse Serum pre-incubation): 4 µg/mL (≈ 5.67 µM); MIC ([12]; Water pre-incubation): 8 µg/mL (≈ 11.3 µM); MIC ([13]; Mouse Serum pre-incubation): 2 µg/mL (≈ 2.83 µM); MIC ([13]; Water pre-incubation): 2 µg/mL (≈ 2.83 µM); MIC ([14]; Mouse Serum pre-incubation): > 64 µg/mL; MIC ([14]; Water pre-incubation): > 64 µg/mL; MIC ([15]; Mouse Serum pre-incubation): 2 µg/mL (≈ 2.83 µM); MIC ([15]; Water pre-incubation): 8 µg/mL (≈ 11.3 µM); MIC ([16]; Mouse Serum pre-incubation): > 64 µg/mL; MIC ([16]; Water pre-incubation): > 64 µg/mL; MIC ([17]; Mouse Serum pre-incubation): > 64 µg/mL; MIC ([17]; Water pre-incubation): > 64 µg/mL; ED50 [18, 22]: > 32 mg/kg; ED50 [18, 23]: > 2 mg/kg; MIC ([19]; Mouse Serum pre-incubation): 4 µg/mL (≈ 5.67 µM); MIC ([19]; Water pre-incubation): 4 µg/mL (≈ 5.67 µM)

Source: patent publication US20070049564A1 (Wyeth, priority 2005, published 2007)
